Legend:
Design in all cases: species or system human
[1] = Modified Lowry Protein Assay, hair protein loss
Protocol: In addition, surface repair benefits from the PA or PA-GL treatments were evaluated by a protein loss assay. It is known that hair cuticle damage after various chemical treatments such as bleaching and perming results in a higher protein loss. To quantify the protein loss before and after treatments, a Modified Lowry Protein Assay was employed. In this method, a Lowry assay (Pierce Modified Lowry Protein Assay Kit, working range is at 1-1500 μg/mL) followed by absorbance measurement using UV-Visible Spectrophotometer (λmax at 740-760 nm) is used to quantify hair protein loss for a sample size of 250 mg of hair in 4 mL of deionized water.

[2] = Fracture patterns of fibers broken in Dia-stron tensile testing; conditions: 3× bleached hair; 2 wt % PA pH 4-4.5, 10 min, blow dry (virgin 34%, bleached 6%)
Protocol: Depending on the level of hair damage, hair fibers may break with very different fracture patterns when pulling to break. […] Fracture patterns of fibers broken from Dia-stron tensile testing were examined under optical microscope to understand the relationship between fracture pattern and hair damage level. […] In contrast, when the bleached hair was treated with a 2 wt % PA aqueous solution at pH 4-4.5 for 10 min, followed by blow dry, 38% smooth fractures were observed, close to that for virgin hair, indicating effective internal hair structure repair and complete restore by PA.
Hair fracture patterns of 3× bleached and PA formulation treated fibers after Dia-stron tensile testing were also examined and compared to those for virgin and bleached hair.

[3] = High humidity test, hair tress area change; conditions: 3× bleached hair, 65% RH, vs untreated bleached hair
Protocol: In this method, hair tresses are exposed to high humidity at 65% RH at 25° C. for 30 min and the area of hair tresses before and after exposure to humidity is quantified using Image J application.

[4] = Dia-Stron single fiber mechanical testing at wet stage
From the text: Additionally, the strengthening benefits of PA and PA-GL blend treatments were confirmed by Dia-Stron single fiber mechanical testing at wet stage. For wet stage single fiber method, hair fibers (≥20 fibers per treatment) at 30 mm length are fixed by 2 brass crimps at the ends and mounted on a Dia-stron tray. Initial dimension measurements are collected using a Dia-Stron FDAS770 (double ended samples, sample size of 30 mm, no of slices of 5 under one rotation per slice), followed by equilibration in Deionized water for at least 2 h prior to testing. All fiber tensile measurements are performed using a Dia-Stron MTT686/MTT690 (under 100% extension at gauge force of 2N, break threshold of 5 g, rate of 20 mm/min, maximum force of 2000 gmf and premature failure threshold of 10% strain).

[5] = Differential scanning calorimetry (DSC) of hair, denaturation temperature (Td); conditions: for hair denaturation temperature: post-treatment pH 2, 5 min
Protocol: To explore treatment with PA and PA-GL, studies were performed using 3× bleached hair as a damaged hair model (each bleaching was done with a mixture of Bleaching powder (BW2) and 40V clear developer at 1:2 ratio, for 1 hour at room temperature). […] Differential scanning calorimetry (DSC) was performed on tresses at wet stage to determine the effect of phytic acid treatment on hair denaturation temperatures (Td). For wet stage DSC, a hair sample of 3-5 mg in 50 μL Deionized water sealed and equilibrated (overnight) in a stainless steel pressure resistant high-volume pan is heated from 25° C. to 180° C. at a 5 ° C./min heating rate. […] The heat damaged hair was prepared by subjecting virgin brown hair to 4 cycles of heat treatments. In each cycle, hair was treated with Deionized water (1 mL per 1.5 g of hair), massaged for 30 s followed by heat treatment (blow dry until dry at medium heat setting, flat iron at 450° F. for 10 strokes at a rate of 10 seconds per stroke from root to tip). At the end of 4 cycles of heat treatments, the hair tress is dialyzed overnight in Deionized water and air dried before DSC testing. The PA treatment on the heat damaged hair was performed using a 2 wt % PA aqueous solution at pH 4.5 for 30 min followed by blow dry. […] The heat protection benefit provided by PA using DSC was also explored, for which virgin hair with or without PA pre-treatment was subjected to 3 cycles of heat treatments. A virgin control sample was also added for comparison, which was prepared by treating the virgin brown hair with Deionized water (1 mL per 1.5 g of hair), massaged 30 seconds and air dried. For each heat treatment cycle, hair sample was blow dried until dry at medium heat setting, and flat ironed at 450° F. for 10 strokes at a rate of 10 seconds per stroke from root to tip. After three cycles of heat treatments, hair samples were dialyzed overnight in DI water and air dried before DSC testing. […] To explore strengthening benefits of PA in a hair care formulation, a PA formulation containing 0.75 wt % PA at pH 4-4.5 was used as an example. The 3× bleached hair was treated with 0.25 g of the PA formulation for 10 min followed by blow dry. Differential scanning calorimetry was performed on tresses to determine the effect of phytic acid treatment on hair denaturation temperatures (Td). […] The heat damaged hair was prepared by subjecting virgin brown hair to 4 cycles of heat treatments. In each cycle, hair was treated with Deionized water (1 mL per 1.5 g of hair), massaged for 30 s followed by heat treatment (blow dry until dry at medium heat setting, flat iron at 450° F. for 10 strokes at a rate of 10 seconds per stroke from root to tip). At the end of 4 cycles of the heat treatments, the hair tress is dialyzed overnight in Deionized water and air dried before DSC testing. […] Furthermore, the capability of PA formulation to protect hair from future chemical treatments (bleaching and coloring) was explored. In this study, two sets of treatments were performed and for each set three replicates were included. In Set I, a virgin tress was bleached once (1st bleach), followed by 12 cycles of shampoo and conditioner washes, then another bleach (2nd bleach). In Set II, similar bleaching and washing process was taken except that the tress was treated with PA formulation after the 1st bleach and 3rd, 6th, 9th, and 12th wash. In both bleaching steps, hair was treated with a mixture of BW2 bleaching powder and clear 30 V developer (1:1.5 ratio, 5 g per 1.5 g of hair) for 20 min under heat (high heat setting in a Belvedere hooded dryer), followed by 30 s water rinse and air dry at room temperature. The hair denaturation temperature (Td) was collected after each bleach treatment and every 3 washing cycles. […] Heat protection provided by the PA formulation using DSC was also explored. Here, three groups of hair samples were compared: virgin, heat control, and PA formulation treated. […]

[6] = Differential wetting characterization (DWC), water contact angle
Protocol: In this method, a pair of hair fibers is mounted on an in-house built stage in a horizontal plane with a separation of ˜0.75 mm. A droplet of deionized water (1 μL) is then applied onto the fiber pair by using a micro syringe. The droplet is observed using a Nikon microscope under 5× magnification and the image is taken using the incorporated digital camera. In the image, the contact angles of the water droplet on the fiber pair are measured respectively using the Nikon Advance Research software. The relative surface hydrophobicity of the fiber pair is correlated to the resulting contact angles, of which the greater value indicates higher hydrophobicity. […]

[7] = Relative hair diameter swelling by environmental scanning electron microscopy; conditions: 3× bleached hair; 2 wt % PA pH 4-4.5, 30 min, blow dry; 10% to 95% RH
Protocol: All measurements were carried out using a FEI Quanta 200 FEG MKII scanning electron microscope, operating at 15 kV, with relative humidity ranging from 10% to 95%. Single source virgin brown hair was bleached three times to obtain a 3× bleached hair model (each bleaching was done with a mixture of bleaching powder (BW2) and 40V clear developer at 1:2 ratio for 1 hour at room temperature, followed by 30 s water rinse and air-dry at room temperature).

[8] = 3× bleached hair, 2 wt % solution, heat styling (blow dry or flatiron)
[9] = bleached hair, PA at 2, 5 or 15 wt % in Restore Repair Leave-In conditioner, flatiron
[10] = bleached hair, treatment pH 2 to 5, flatiron
[11] = colored hair, post-treatment, blow dry
[12] = more damaged model (2× bleached at 45° C.), 2 wt % PA pH 2, 1 hour

O=P(O)(O)O[C@H]1[C@H](OP(=O)(O)O)[C@@H](OP(=O)(O)O)[C@H](OP(=O)(O)O)[C@@H](OP(=O)(O)O)[C@H]1OP(=O)(O)O [PA, phytic acid]
reduction of protein loss ([1]; 3× bleached hair, vs untreated bleached hair (6.6 mg/g hair)): 27% | reduction of protein loss ([1]; ATG-reduced hair (7.9 mg/g hair untreated)): 58% | smooth fractures [2]: 38% | hair tress area increase ([3]; 25° C., 30 min): much less area increase | difference in area increase after 7 shampoo and conditioner washing cycles [3]: remained significant | Young's modulus [4, 8]: greatly improved | break stress [4, 8]: greatly improved | PA concentration at which significant improvement in Young's modulus and break stress was achieved ([4]; 3× bleached hair, PA 0.1 to 20 wt %, 15 min, heat styling): ≥ 2 wt % | Young's modulus [4, 9]: significant increases | break stress [4, 9]: significant increases | Young's modulus [4, 10]: greatly improved | break stress [4, 10]: greatly improved | Young's modulus [4, 11]: greatly improved | break stress [4, 11]: greatly improved | Young's modulus [4, 12]: greatly improved | break stress [4, 12]: greatly improved | Td after 10 shampoo and conditioner washing cycles ([5]; 3× bleached hair treated with 2 wt % PA aqueous solution): ≥ 149 °C | hair denaturation temperature (Td) ([5]; 3× bleached hair, 2 wt % aqueous solution pH 2, 15 min, heat styling, vs virgin hair): fully recovered to the virgin level | denaturation temperature ([5]; 3× bleached hair, PA at 2 wt % or higher concentration, vs virgin hair): recovered back to or even beyond the virgin level | hair denaturation temperature ([5]; ATG-reduced hair, blow dry, vs virgin hair): recovered to the level of virgin hair | hair denaturation temperature ([5]; colored 3× bleached hair, blow dry): recovers to the level of the virgin hair | recovery in Td ([5]; heat damaged hair (4 heat cycles), 2 wt % PA pH 4.5, 30 min, blow dry): 5 °C | immediate improvement in Td ([5]; treated after 1st bleach (Set II)): 3 °C | Td over 12 washing cycles and after 2nd bleach ([5]; treated after 1st bleach and 3rd, 6th, 9th, 12th wash, vs virgin level): remained above the virgin level | Td after 3 heating cycles ([5]; virgin hair treated before each heat treatment (flat iron 450° F.), heat control 7° C. decrease): same Td as virgin hair | change in Td upon 3 cycles of heat treatments ([5]; virgin hair with PA pre-treatment, heat protection): didn't show any significant change | increase in water contact angle ([6]; 3× bleached hair, vs untreated bleached hair): 5 ° | increase in water contact angle ([6]; ATG-reduced hair): 5 ° | increase in water contact angle ([6]; colored hair): 5 ° | relative diameter swelling rate [7]: greatly reduced, even lower than virgin hair

Source: patent publication US20230075937A1, “METHODS FOR STRENGTHENING AND REPAIRING HAIR” (Living Proof, Inc., priority 2021, published 2023)
